# Laboratory results published in patent US5733913A, “6-Aryl pyrido[2,3-d] pyrimidines and naphthyridines for inhibiting protein tyrosine kinase mediated cellular proliferation” (priority 1995, dated 1998).
# Experiments:
# [1] = target: T1, mouse PDGF-β receptor tyrosine kinase (Mus musculus, UniProt P05622); assay: PDGF receptor tyrosine kinase assay; type: biochemical; details: read-out: Inhibition of Protein Tyrosine Kinases, PDGF, IC50
# T1 construct: a fragment of DNA that codes for the intracellular tyrosine kinase domain; made in house; host or cells: Sf9 insect cells (baculovirus), cell lysate
# Method in brief: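 Intracellular kinase domains expressed in baculovirus-infected SF9 cells; crude lysate used as enzyme. Inhibitor preincubated 10 min at 25 °C with lysate in pH 7.0 Hepes buffer with 10 mM MnCl2 and poly(Glu-Tyr) 4:1, then γ-32P-ATP (50 μM ATP) added for 10 min at 25 °C. TCA-precipitated 32P on filters counted, no-enzyme background subtracted.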
# [2] = target: T2, Human EGF receptor tyrosine kinase (Homo sapiens, UniProt P00533); assay: EGF receptor tyrosine kinase assay; type: biochemical; details: read-out: Inhibition of Protein Tyrosine Kinases, EGF, IC50
# T2 construct: isolated from A431 epidermoid carcinoma cells; endogenous in cells; host or cells: A431 epidermoid carcinoma cells (Triton lysate, wheat germ agglutinin eluate)
# Procedure: Purification of Epidermal Growth Factor Receptor Tyrosine Kinase
# Human EGF receptor tyrosine kinase was isolated from A431 epidermoid carcinoma cells by the following methods. Cells were grown in roller bottles in 50% Delbuco's Modified Eagle and 50% HAM F-12 nutrient media (Gibco) containing 10% fetal calf serum. Approximately 10^9 cells were lysed in two volumes of buffer containing 20 mM 2-(4N-[2-hydroxyethyl]piperazin-1-yl)ethanesulfonic acid, pH 7.4, 5 mM ethylene glycol bis(2-aminoethyl ether)N,N,N',N'-tetraacetic acid, 1% Triton X-100, 10% glycerol, 0.1 mM sodium orthovanadate, 5 mM sodium fluoride, 4 mM pyrophosphate, 4 mM benzamide, 1 mM dithiothreitol, 80 μg/mL aprotinin, 40 μg/mL leupeptin, and 1 mM phenylmethylsulfonyl fluoride. After centrifugation at 25,000×g for 10 minutes, the supernatant was equilibrated for 2 hours at 4° C. with 10 mL of wheat germ agglutinin sepharose that was previously equilibrated with 50 mM Hepes, 10% glycerol, 0.1% Triton X-100 and 150 mM NaCl, pH 7.5, (equilibration buffer). Contaminating proteins were washed from the resin with 1M NaCl in equilibration buffer, and the enzyme was eluted with 0.5M N-acetyl-1-D-glucosamine in equilibration buffer.
# Determination of IC50 Values
# The reaction was terminated by the addition of 2 mL of 75 mM phosphoric acid and passed through a 2.5-cm phosphocellulose filter disc to bind the peptide. The filter was washed five times with 75 mM phosphoric acid and placed in a vial along with 5 mL of scintillation fluid (Ready gel Beckman).
# T1 sequence (P05622 599-961 limits assumed): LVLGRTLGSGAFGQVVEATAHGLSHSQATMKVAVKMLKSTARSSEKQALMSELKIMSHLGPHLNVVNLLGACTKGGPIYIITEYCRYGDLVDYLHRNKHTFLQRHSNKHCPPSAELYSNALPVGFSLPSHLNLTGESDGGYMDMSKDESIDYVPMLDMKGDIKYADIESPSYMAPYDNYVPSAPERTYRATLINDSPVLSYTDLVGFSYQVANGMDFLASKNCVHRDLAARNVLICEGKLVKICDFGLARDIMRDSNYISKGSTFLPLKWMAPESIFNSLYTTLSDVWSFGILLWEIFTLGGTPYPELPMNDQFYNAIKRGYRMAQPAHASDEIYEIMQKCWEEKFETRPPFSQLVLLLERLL
# T2 sequence (P00533 25-1210): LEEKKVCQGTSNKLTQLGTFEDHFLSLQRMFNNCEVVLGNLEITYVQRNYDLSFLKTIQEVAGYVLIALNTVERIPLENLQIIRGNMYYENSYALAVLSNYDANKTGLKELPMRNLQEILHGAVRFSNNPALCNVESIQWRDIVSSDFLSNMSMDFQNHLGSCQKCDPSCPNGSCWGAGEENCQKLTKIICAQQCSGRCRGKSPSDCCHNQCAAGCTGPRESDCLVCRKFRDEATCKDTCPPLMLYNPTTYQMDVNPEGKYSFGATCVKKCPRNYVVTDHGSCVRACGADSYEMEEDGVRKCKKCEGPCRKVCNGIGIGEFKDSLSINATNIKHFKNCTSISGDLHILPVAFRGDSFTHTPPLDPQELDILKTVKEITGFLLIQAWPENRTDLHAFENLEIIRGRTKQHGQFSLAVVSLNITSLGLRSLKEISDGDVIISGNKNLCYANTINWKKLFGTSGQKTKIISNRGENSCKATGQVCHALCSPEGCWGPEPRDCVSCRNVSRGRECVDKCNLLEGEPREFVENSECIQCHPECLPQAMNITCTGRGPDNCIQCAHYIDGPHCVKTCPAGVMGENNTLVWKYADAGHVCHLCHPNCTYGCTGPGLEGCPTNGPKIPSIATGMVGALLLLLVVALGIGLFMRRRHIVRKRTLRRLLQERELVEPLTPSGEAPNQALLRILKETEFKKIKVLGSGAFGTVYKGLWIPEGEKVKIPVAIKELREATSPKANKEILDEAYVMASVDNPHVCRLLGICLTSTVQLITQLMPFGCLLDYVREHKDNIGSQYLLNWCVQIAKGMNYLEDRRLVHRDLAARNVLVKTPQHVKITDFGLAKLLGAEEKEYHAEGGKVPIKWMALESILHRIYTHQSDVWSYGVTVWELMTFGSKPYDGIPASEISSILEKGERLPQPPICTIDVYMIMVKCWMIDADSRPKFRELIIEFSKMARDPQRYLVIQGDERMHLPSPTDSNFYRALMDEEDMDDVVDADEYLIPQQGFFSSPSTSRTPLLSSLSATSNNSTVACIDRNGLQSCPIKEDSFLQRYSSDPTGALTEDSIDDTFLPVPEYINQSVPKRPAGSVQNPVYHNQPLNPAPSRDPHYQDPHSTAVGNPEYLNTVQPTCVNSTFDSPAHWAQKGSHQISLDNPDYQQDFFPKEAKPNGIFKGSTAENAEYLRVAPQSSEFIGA
smiles,measurement,setting,value
"Cc1ccccc1-c1cc2cnc(N)nc2nc1N [Example 90, 6-o-Tolyl-pyrido[2,3-d]pyrimidine-2,7-diamine]",IC50,[1],8.01 µM
same,IC50,[2],22.8 µM
